Reference: patent publication US20110039873A1, “SUBSTITUTED PYRAZOLO[1,5-a] PYRIDINE COMPOUNDS HAVING MULTI-TARGET ACTIVITY” (priority 2009, published 2011)
Read-outs that look alike come from different tables or passages of the source.

Assays:
[1] = biological target: T1, recombinant full length human JNK3 enzyme (Homo sapiens, UniProt P53779); experiment: JNK 3 inhibition assay (ATP depletion, luciferase); type: biochemical; details: for IC50: 10 uM ATP, ATF2 substrate; for JNK-3 inhibition (in words): see Table 2
T1 construct: recombinant full length human JNK2 or JNK3 enzyme; purchased Upstate; host or cells: Sf21 cells
T1 sequence (P53779 whole entry): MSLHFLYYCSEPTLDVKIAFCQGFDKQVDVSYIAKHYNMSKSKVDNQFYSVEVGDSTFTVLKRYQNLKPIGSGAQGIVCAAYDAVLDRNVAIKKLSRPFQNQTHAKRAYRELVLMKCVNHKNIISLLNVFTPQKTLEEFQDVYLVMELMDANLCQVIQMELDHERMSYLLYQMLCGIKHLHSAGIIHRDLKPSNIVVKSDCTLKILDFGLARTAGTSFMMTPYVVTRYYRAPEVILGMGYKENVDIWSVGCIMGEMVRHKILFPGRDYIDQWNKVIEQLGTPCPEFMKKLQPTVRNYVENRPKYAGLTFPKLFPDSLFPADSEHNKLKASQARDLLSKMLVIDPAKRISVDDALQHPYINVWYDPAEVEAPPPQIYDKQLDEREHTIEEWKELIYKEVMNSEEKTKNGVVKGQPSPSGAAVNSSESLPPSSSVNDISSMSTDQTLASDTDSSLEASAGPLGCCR
Protocol: In a 96-well plate, recombinant full length human JNK2 or JNK3 enzyme (40 ng) expressed in Sf21 cells (Upstate) was incubated with the substrate ATF2 (3 uM) for 1 hour in the presence of 10 uM ATP. […] The ATP levels were quantified using luciferase with luminescence read on a Victor Light 1420 luminometer. IC50 calculations were plotted using a nonlinear regression curve fit.

[2] = biological target: T2, recombinant full length human JNK2 enzyme (Homo sapiens, UniProt P45984); experiment: JNK 2 inhibition assay (ATP depletion, luciferase); type: biochemical
T2 construct: recombinant full length human JNK2 or JNK3 enzyme; purchased Upstate; host or cells: Sf21 cells
T2 sequence (P45984 whole entry): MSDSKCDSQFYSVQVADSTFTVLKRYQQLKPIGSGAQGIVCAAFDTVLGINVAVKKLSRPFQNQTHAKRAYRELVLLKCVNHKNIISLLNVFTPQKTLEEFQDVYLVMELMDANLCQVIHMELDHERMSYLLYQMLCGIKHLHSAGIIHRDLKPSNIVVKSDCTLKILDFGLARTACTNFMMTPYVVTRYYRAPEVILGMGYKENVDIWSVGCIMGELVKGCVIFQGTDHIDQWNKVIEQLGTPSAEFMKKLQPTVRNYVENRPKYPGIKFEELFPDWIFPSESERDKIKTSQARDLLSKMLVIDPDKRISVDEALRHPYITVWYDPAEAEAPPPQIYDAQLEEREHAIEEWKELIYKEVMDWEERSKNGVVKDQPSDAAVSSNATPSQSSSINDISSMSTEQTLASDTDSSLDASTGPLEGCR
Protocol: In a 96-well plate, recombinant full length human JNK2 or JNK3 enzyme (40 ng) expressed in Sf21 cells (Upstate) was incubated with the substrate ATF2 (3 uM) for 1 hour in the presence of 10 uM ATP. […] IC50 calculations were plotted using a nonlinear regression curve fit.

[3] = biological target: T3, recombinant human phosphodiesterase 10A1 enzyme (Homo sapiens, UniProt Q9Y233); experiment: PDE10 inhibition assay (PDELight); type: biochemical; details: for IC50: 1 uM cAMP, read-out: PDE 10 Inhibition (IC50 in μM); for PDE-10 inhibition (in words): Table 2
T3 construct: purchased BPS Biosciences; host or cells: Baculovirus infected Sf9 cells
T3 sequence (Q9Y233 1-779 isoform Q9Y233-1): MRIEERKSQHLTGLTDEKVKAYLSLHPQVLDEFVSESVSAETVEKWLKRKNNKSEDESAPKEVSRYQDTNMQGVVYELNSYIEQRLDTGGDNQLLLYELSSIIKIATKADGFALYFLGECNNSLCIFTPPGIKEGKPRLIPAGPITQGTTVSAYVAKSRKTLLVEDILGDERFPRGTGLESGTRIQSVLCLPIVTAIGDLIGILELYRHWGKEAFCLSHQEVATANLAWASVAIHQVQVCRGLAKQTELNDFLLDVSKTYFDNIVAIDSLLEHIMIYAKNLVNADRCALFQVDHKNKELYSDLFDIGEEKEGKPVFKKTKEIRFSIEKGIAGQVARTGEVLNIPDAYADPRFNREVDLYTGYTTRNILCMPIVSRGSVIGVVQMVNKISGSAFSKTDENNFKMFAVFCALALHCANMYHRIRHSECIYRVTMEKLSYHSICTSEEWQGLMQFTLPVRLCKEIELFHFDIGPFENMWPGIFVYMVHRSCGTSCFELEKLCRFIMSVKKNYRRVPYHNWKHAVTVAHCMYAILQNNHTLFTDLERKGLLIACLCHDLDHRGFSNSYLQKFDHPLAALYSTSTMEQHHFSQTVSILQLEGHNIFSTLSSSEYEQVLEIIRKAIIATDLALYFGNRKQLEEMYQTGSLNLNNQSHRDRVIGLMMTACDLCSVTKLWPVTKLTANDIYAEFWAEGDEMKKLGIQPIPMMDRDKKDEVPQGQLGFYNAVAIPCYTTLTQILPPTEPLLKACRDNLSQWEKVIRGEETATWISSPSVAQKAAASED

[4] = test system: Mouse BV-2 microglial cells; experiment: BV-2 glial cell assay (TNF-α and MCP-1 by Luminex); type: cell-based; details: for EC50: Mus musculus, BV-2, LPS and IFN-γ activated, 20 hours; for inhibiting glial cell activation (TNF-α and/or MCP-1): Table 3
Protocol: Mouse BV-2 microglial cells were seeded on 96-well plates at a concentration of 3×10^4 cells/well. Cells were activated with 100 ng/mL LPS and IFN-γ (100 ng/mL) in the presence or absence of test compounds (0-30 uM). Following incubation for 20 hours, cells were spun down and supernatant collected. The supernatant was analyzed via Luminex for the presence of TNF-α and MCP-1.

[5] = test system: phosphorylated c-Jun (serine-73); experiment: Phosphorylated c-JUN (6-OHDA), SH-SY5Y; type: cell-based; details: Homo sapiens, 50 uM 6-hydroxydopamine, 1.5 hours, read-out: p-cJun 6-OHDA SH-SY5Y (EC50 in μM)
Protocol: Human SH-SY5Y neuroblastoma cells were cultured in 96-well plates with 2.5×10^4 cells/well and incubated for 48 hours. 6-hydroxydopamine was added at a concentration of 50 uM in the presence or absence of test compounds (0-30 uM) and incubated for 1.5 hours. Supernatant was discarded and cells were fixed with 4% paraformaldehyde (100 ul/well) for 20 minutes. FACE cell based ELISA assay (Active Motif) was performed specific for quantifying phosphorlyated c-Jun (serine-73).

[6] = test system: phosphorylated c-Jun (serine-73); experiment: Phosphorylated c-JUN (A-beta), SH-SY5Y; type: cell-based; details: Homo sapiens, Amyloid Beta peptide 30 uM, 3 hours, read-out: p-cJun Abeta SH-SY5Y (EC50 in μM)
Protocol: In 96-well plates either human SH-SY5Y neuroblastoma cells at 2.5×10^4 cells/well or E18 rat neuronal cells at 1.5×10^4 cells/well were seeded. […] Supernatant was discarded and cells were fixed with 4% paraformaldehyde (100 ul/well) for 20 minutes. FACE cell based ELISA assay (Active Motif) was performed specific for quantifying phosphorlyated c-Jun (serine-73).

[7] = test system: phosphorylated c-Jun (serine-73); experiment: Phosphorylated c-JUN (A-beta), E18 rat neuronal cells; type: cell-based; details: Amyloid Beta peptide 30 uM, 3 hours, read-out: p-cJun Abeta E18 (EC50 in μM)
Protocol: In 96-well plates either human SH-SY5Y neuroblastoma cells at 2.5×10^4 cells/well or E18 rat neuronal cells at 1.5×10^4 cells/well were seeded. To each well the following was added, Amyloid Beta peptide 1-25 (source) at a concentration of 30 uM, retinoic acid (10 uM) and test compounds (0-30 uM) and incubated for 3 hours. Supernatant was discarded and cells were fixed with 4% paraformaldehyde (100 ul/well) for 20 minutes. FACE cell based ELISA assay (Active Motif) was performed specific for quantifying phosphorlyated c-Jun (serine-73).

[8] = biological target: T4, catalytic domain of phosphodiesterase 4B enzyme cloned from human brain (Homo sapiens, UniProt Q07343); experiment: PDE4 inhibition assay (PDELight); type: biochemical; details: for IC50: 5 uM cAMP, read-out: PDE 4 Inhibition (IC50 in μM)
T4 construct: the catalytic domain of phosphodiesterase 4B enzyme; purchased Scottish Biomedical
T4 sequence (Q07343 330-659 limits assumed): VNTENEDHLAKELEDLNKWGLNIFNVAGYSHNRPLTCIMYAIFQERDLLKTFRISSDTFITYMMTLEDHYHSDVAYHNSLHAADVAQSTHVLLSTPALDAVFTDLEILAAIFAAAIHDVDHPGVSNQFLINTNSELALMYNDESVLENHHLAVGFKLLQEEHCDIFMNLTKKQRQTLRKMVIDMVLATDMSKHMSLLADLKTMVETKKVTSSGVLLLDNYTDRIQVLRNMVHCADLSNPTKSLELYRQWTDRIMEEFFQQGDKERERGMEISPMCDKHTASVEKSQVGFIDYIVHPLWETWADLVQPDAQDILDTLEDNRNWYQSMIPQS
In short: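 Human PDE4B catalytic domain (40 mU/well) incubated with 5 uM cAMP. AMP formed was converted to ATP and measured by luciferase luminescence (PDELight). IC50 derived by nonlinear regression curve fit.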

[9] = Oral pharmacokinetic evaluation; type: in vivo, rat; details: Sprague-Dawley rats; for AUC(0-t) / Cmax / half-life: male, rat, plasma; for AUC(0-t): read-out: Oral PK AUClast; for Cmax: read-out: Oral PK Cmax; for half-life: Sprague-Dawley, po, 15 mg/kg
Protocol: Three male Sprague-Dawley rats were dosed orally via gavage with 15 mg/kg of test compound. Serial blood samples were collected from the jugular vein at 5, 15, and 30 min, 1, 3, and 6 hours post dosing. Samples were processed for plasma via centrifugation and plasma samples were stored frozen prior to analysis via a sensitive and specific HPLC/MS/MS method. PK parameters were calculated using WinNonLin (Pharsight).

[10] = test system: rat chronic constriction injury (CCI) model of neuropathic pain; experiment: Rat chronic constriction injury (CCI) model of neuropathic pain; type: in vivo
[11] = test system: at least one of JNK 3 or JNK 2 and at least one of PDE 10 or PDE 4; experiment: Dual inhibition (phosphodiesterase and JNK); type: biochemical, human; details: IC50 JNK 3 or JNK 2 less than about 5.00 μM and PDE 10 or PDE 4 less than about 20.0 or 30.0 μM
Protocol: In a 96-well plate, recombinant full length human JNK2 or JNK3 enzyme (40 ng) expressed in Sf21 cells (Upstate) was incubated with the substrate ATF2 (3 uM) for 1 hour in the presence of 10 uM ATP. The amount of ATP depletion by the JNK enzyme is measured in the presence or absence of test compounds (0-30 uM). The ATP levels were quantified using luciferase with luminescence read on a Victor Light 1420 luminometer. IC50 calculations were plotted using a nonlinear regression curve fit.
(§1) In a 96-well plate, the catalytic domain of phosphodiesterase 4B enzyme (40 mU/well) cloned from human brain (Scottish Biomedical) was combined with 5 uM cAMP substrate (Sigma). Test compounds (0-30 uM) or vehicle (0.5% DMSO) were added to the enzyme/substrate and incubated 1 hour. Using a PDELight® kit (Cambrex), the amount of AMP produced in the reaction from the hydrolysis of cAMP was quantified using PDELight AMP Detection Reagent which converts the AMP directly to ATP. The assay uses luciferase, which catalyses the formation of light from the newly formed ATP and luciferin. The luminescence was read on a Victor Light 1420 luminometer. IC50 calculations were plotted using a nonlinear regression curve fit.
as §1, with “plate, recombinant human” for “plate, the catalytic domain of”, “phosphodiesterase 10A1” for “phosphodiesterase 4B”, “enzyme (10 U/well) expressed in Baculovirus infected Sf9 cells (BPS Biosciences)” for “enzyme (40 mU/well) cloned from human brain (Scottish Biomedical)”, “with 1” for “with 5”

[12] = Water solubility; type: physicochemical; details: defined as at least 10 milligrams per milliliter in water at 25° C. and pH 7.0
Protocol: By “water soluble” is meant a compound that is soluble in water to an extent of at least 10 milligrams per milliliter in water at 25° C. and a pH 7.0.

[13] = 10 uM ATP, ATF2 substrate, read-out: JNK 2 Inhibition (IC50 in μM)
[14] = read-out: MCP-1 BV-2 (EC50 in μM)
[15] = read-out: TNF-a BV-2 (EC50 in μM)
[16] = read-out: IC50 value based upon a JNK 2 inhibition assay (range given)
[17] = dose not given, 50% paw withdrawal threshold, von Frey
[18] = 15 mg/kg oral gavage, read-out: Oral PK T½ (converted)

| IC50 [1] [µM] | IC50 [2, 13] [µM] | IC50 [3] [µM] | EC50 [4, 14] [µM] | EC50 [4, 15] [µM] | EC50 [5] [µM] | EC50 [6] [µM] | EC50 [7] [µM] | IC50 [2, 16] [µM] | PDE-10 inhibition (in words) [3] | PDE-4 inhibition (in words) [8] | IC50 [8] [µM] | AUC(0-t) ([9]; 15 mg/kg oral gavage) [ng·h/mL] | Cmax ([9]; 15 mg/kg oral gavage) [ng/mL] | dual inhibition (phosphodiesterase and JNK) [11] | JNK-3 inhibition (in words) [1] | Structure (SMILES) | IP CCI efficacy (Change in grams) [10, 17] [grams] | inhibiting glial cell activation (TNF-α and/or MCP-1) [4] | other results |
| --- | --- | --- | --- | --- | --- | --- | --- | --- | --- | --- | --- | --- | --- | --- | --- | --- | --- | --- | --- |
| > 100 | > 100 | 6.3 | 42 | 2.7 | > 30 | 3.8 | > 30 |  |  |  |  |  |  |  |  | CC(C)C(=O)c1c(C(C)C)nn2ccccc12 [AV411, 1-(2-isopropylpyrazolo[1,5-a]pyridin-3-yl)-2-methylpropan-1-one, reference compound] |  |  |  |
| 1.9 | 1.6 | 7.7 | 0.3 | 1 |  |  |  | 0.01 to 2 | particularly effective | particularly effective | 2.7 | 1700 | 420 | effective dual inhibitors | particularly effective | c1ccn2nc(C3CC3)c(-c3ccnc(NC4CC4)n3)c2c1 [AV1200, N-cyclopropyl-4-(2-cyclopropylpyrazolo[1,5-a]pyridin-3-yl)pyrimidin-2-amine] |  | Particularly effective | half life following oral dosing (in words) ([9]; oral): particularly prolonged half lives; half-life [9, 18]: 4.7 h; half-life ([9]; oral, read-out: half life following oral dosing): > 3 h; IP CCI efficacy (Change in grams) ([10]; 10 mg/kg): 0 (10 mg/kg); grams; IP CCI efficacy (Change in grams) ([10]; 20 mg/kg): 1.8 (20 mg/kg) grams; PO CCI efficacy (Change in grams) ([10]; 30 mg/kg): 0 (30 mg/kg); grams; PO CCI efficacy (Change in grams) ([10]; 60 mg/kg): 1.25 (60 mg/kg) grams; water soluble [12]: water soluble |

Continued, molecule first:

| Structure (SMILES) | IC50 [1] [µM] | IC50 [2, 13] [µM] | IC50 [3] [µM] | EC50 [4, 14] [µM] | EC50 [4, 15] [µM] | EC50 [5] [µM] | EC50 [6] [µM] | EC50 [7] [µM] | IC50 [2, 16] [µM] | PDE-10 inhibition (in words) [3] | PDE-4 inhibition (in words) [8] | IC50 [8] [µM] | AUC(0-t) ([9]; 15 mg/kg oral gavage) [ng·h/mL] | Cmax ([9]; 15 mg/kg oral gavage) [ng/mL] | dual inhibition (phosphodiesterase and JNK) [11] | JNK-3 inhibition (in words) [1] | IP CCI efficacy (Change in grams) [10, 17] [grams] | inhibiting glial cell activation (TNF-α and/or MCP-1) [4] | other results |
| --- | --- | --- | --- | --- | --- | --- | --- | --- | --- | --- | --- | --- | --- | --- | --- | --- | --- | --- | --- |
| CCCNc1nccc(-c2c(C(C)C)nn3ccccc23)n1 [AV1153, 4-(2-isopropylpyrazolo[1,5-a]pyridin-3-yl)-N-propylpyrimidin-2-amine] | 4.1 |  | 8.9 |  |  | > 30 | > 30 | 3.6 | 0.01 to 2 | particularly effective | particularly effective | 11.5 | 32 | 13 | effective dual inhibitors |  | 1.85 |  |  |
| CC(C)c1nn2ccccc2c1-c1ccnc(NC2CCCC2)n1 [AV1154, N-cyclopentyl-4-(2-isopropylpyrazolo[1,5-a]pyridin-3-yl)pyrimidin-2-amine] | 6 |  | 3 |  |  | 3.4 | > 10 | 13 |  | particularly effective | particularly effective | 7.1 |  |  | effective dual inhibitors |  | 0 |  |  |
| CCCNc1nccc(-c2cnn3ccccc23)n1 [AV1166, N-propyl-4-(pyrazolo[1,5-a]pyridin-3-yl)pyrimidin-2-amine] | 0.4 | 1.3 | 38.2 | 1.1 | 0.9 | 1.4 | 11 | 37 | 0.01 to 2 | particularly effective |  | 16.5 |  |  | effective dual inhibitors | particularly effective |  | Particularly effective |  |
| Cc1cccc2c(-c3ccnc(NC(C)C)n3)cnn12 [AV1183, N-isopropyl-4-(7-methylpyrazolo[1,5-a]pyridin-3-yl)pyrimidin-2-amine] | 0.2 |  | 35 | 1.2 | 1.1 | 0.3 | 5.4 |  |  |  | particularly effective | 6.2 | 35 | 56 | effective dual inhibitors | particularly effective | 0.3 | Particularly effective | half-life [9, 18]: 1.1 h |
| Oc1c2ccccc2c2c3c(cccc13)N=N2 [SP600125, reference compound] | 0.2 |  |  |  |  | 0.6 |  | 7.6 |  |  |  |  |  |  |  |  | 0.5 |  |  |
